Counter-ions that a name gives are not always drawn.
Columns and labels:
[1] = Hygroscopicity measured at room temperature (weight change under moisture adsorption/desorption); type: physicochemical; settings: humidity of 0 to 90%
Description: (§1) The hygroscopicity was measured at room temperature for each of the crystalline monohydrochloride 0.5 hydrate of Example 1 (compound A) produced by the method of the present invention and the amorphous powders of the compound of Example 6 of International Publication No. 2006/068163 (compound B) produced by a conventional technique.

human recombinant DPP IV = target: T1, human recombinant DPP IV (Homo sapiens, UniProt P27487); experiment: In vitro DPP-IV inhibitory action measurement test; type: biochemical; settings: preincubated 100 to 110 minutes, substrate Gly-Pro-MCA 40 μmol/L
T1 construct: purchased R&D system
Description: Solutions containing test compounds were prepared at various concentrations and added to microassay plates. Further, human recombinant DPP IV (R&D system) was added and preincubated at room temperature for 100 to 110 minutes, followed by adding a substrate (Glycyl-L-proline 4-methylcoumaryl-7-amide, Peptide Institute, Inc.; final concentration: 40 μmol/L) to start the enzymatic reaction. The enzymatic reaction rate was determined by measuring the fluorescence change with time for 10 minutes after 10 minutes elapsed from the start of addition of the substrate using a fluorescence plate reader (excitation wavelength: 380 nm, measurement wavelength: 460 nm). From the results obtained, the compound concentration showing 50% inhibition was calculated as an IC50 value.

[2] = Storage stability under a light source: residual rate by HPLC and appearance after two week storage; type: physicochemical; settings: for residual rate: HPLC area percentage; for change in color after the stability test (in words) / stability under a light source (in words): both 1000 lux and 4000 lux
Description: as §1, with “residual rates after two week storage under a light source of 1000 lux and 4000 lux were” for “hygroscopicity was”, “measured” for “measured at room temperature”
The residual rate (%) of a compound was determined by the area percentage of the residual rate of the compound measured using high performance liquid chromatography (HPLC). The HPLC measurement conditions were as follows:
Column: CAPCELL PAK C18 UG120 (4.6 mm I.D.×250 mm)
Mobile phase (A/B): 10 mM sodium phosphate buffer (pH=6.9)/CH3CN
Mobile phase (ratio of B): 30% (0 min) →90% (45 min)
Column temperature: 40° C.

[3] = two week storage, 1000 Lux, 11% RH
[4] = two week storage, 4000 Lux, 10% RH

T1 sequence (P27487 whole entry): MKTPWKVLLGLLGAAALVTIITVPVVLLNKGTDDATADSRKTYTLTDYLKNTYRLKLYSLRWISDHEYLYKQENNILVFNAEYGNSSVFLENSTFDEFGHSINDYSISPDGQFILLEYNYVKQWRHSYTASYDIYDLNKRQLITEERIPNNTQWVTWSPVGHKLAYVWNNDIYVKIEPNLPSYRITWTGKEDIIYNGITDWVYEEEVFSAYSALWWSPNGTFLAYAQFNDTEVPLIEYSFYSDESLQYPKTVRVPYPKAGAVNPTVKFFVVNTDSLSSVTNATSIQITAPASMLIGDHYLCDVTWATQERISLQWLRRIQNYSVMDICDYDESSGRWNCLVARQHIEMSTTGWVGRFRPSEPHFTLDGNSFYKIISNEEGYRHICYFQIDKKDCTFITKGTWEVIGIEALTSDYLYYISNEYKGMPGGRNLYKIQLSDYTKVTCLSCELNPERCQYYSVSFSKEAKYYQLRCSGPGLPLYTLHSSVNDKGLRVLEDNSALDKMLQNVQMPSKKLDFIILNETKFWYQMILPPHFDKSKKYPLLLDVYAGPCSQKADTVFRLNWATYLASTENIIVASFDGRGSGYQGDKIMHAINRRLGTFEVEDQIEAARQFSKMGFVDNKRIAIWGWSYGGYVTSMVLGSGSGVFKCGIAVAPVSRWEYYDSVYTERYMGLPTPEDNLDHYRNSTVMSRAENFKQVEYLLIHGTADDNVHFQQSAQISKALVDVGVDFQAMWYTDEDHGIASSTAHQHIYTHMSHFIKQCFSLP

Row | change in the weight (hygroscopicity) [1] | IC50 (human recombinant DPP IV) | appearance (color) ([2]; Initial) | residual rate ([2]; Initial) | change in color after the stability test (in words) ([2]; two week storage) | stability under a light source (in words) ([2]; two week storage) | appearance (color) [2, 3] | residual rate [2, 3] | appearance (color) [2, 4] | residual rate [2, 4] | melting point | Structure (SMILES)
1 | no change in the weight | 0.71 nM | Pale yellow | 100.0% | no change in color | extremely high stability | Pale yellow | 100.0% | Pale yellow | 99.9% | – | Cn1c(=O)c2c(cc(N3CCC[C@@H](N)C3)n2Cc2cc(F)ccc2Cl)n(C)c1=O [Compound A, 6-[(3R)-3-aminopiperidin-1-yl]-5-(2-chloro-5-fluorobenzyl)-1,3-dimethyl-1H-pyrrolo[3,2-d]pyrimidine-2,4(3H,5H)-dione monohydrochloride hemihydrate]
2 | – | – | – | – | – | – | – | – | – | – | 205 to 208 °C | Cn1c(=O)c2c(cc(N3CCC[C@@H](N)C3)n2Cc2cc(F)ccc2Cl)n(C)c1=O (as salt: hydrochloride) (hydrate or solvate) [Compound A, 6-[(3R)-3-aminopiperidin-1-yl]-5-(2-chloro-5-fluorobenzyl)-1,3-dimethyl-1H-pyrrolo[3,2-d]pyrimidine-2,4(3H,5H)-dione monohydrochloride hemihydrate]
3 | −5.0 to 9.0% | – | Pale yellow | 100.0% | apparently changed in color to yellow | low stability | Yellow | 99.2% | Yellow | 97.4% | – | Cl.Cn1c(=O)c2c(cc(N3CCC[C@@H](N)C3)n2Cc2cc(F)ccc2Cl)n(C)c1=O [Compound B, reference compound]

— patent publication US20110009433A1, “BICYCLIC PYRROLE COMPOUND” (DAINIPPON SUMITOMO PHARMA CO., LTD., priority 2008, published 2011)
